Each structure is given as a SMILES string. In brackets after ≈: the same amount, converted by molar mass. Counter-ions that a name gives are not always drawn. Like-named read-outs stand apart in the source and are kept apart here. Marks after values point to notes of the source that are not given here.

Consider 15 compounds from patent publication US7977327B2, “Substituted pyrrolidine derivative” (Daiichi Sankyo Company, Limited, priority 2004, dated 2011).

Data set [1] relates to E. coli NIHJ. The data set can be described thus: Antibacterial activity (MIC), standard method of the Japan Society of Chemotherapy. Format: cell-based. As for the experimental part:
(§1) The antimicrobial activities of the compounds of the present invention were determined according to a standard method designated by the Japan Society of Chemotherapy. The results are expressed by MIC (μg/mL) (Table 1). In Table 1, S. aureus 870307 and S. pneumonia J24 are quinolone-resistant bacteria.

The subject of data set [2] is E. faevcalis ATCC 19433. Described as above. Format: cell-based. As for the experimental part: as §1
Data set [3] deals with K. pneumoniae TYPE I. The description is as above. The data set is classed as cell-based. As for the experimental part: as §1
Data set [4] relates to P. Vulgalis 08601. The data set is described as above. Format: cell-based. As for the experimental part: as §1
The test system of data set [5] is P. aeruginosa 32104. Described as above. Format: cell-based. As for the experimental part:
as §1

In data set [6] the test system is P. aeruginosa 32121. Described as above. The data set is classed as cell-based. As for the experimental part:
as §1

The test system of data set [7] is S. aureus 870307. The description is as above. The data set is classed as cell-based. As for the experimental part:
as §1

The subject of data set [8] is S. aureus FDA 209P. The description is as above. Format: cell-based. As for the experimental part: as §1
The test system of data set [9] is S. epidermidis 56500. The data set is described as above. Format: cell-based. As for the experimental part:
as §1

The subject of data set [10] is S. flexneri 2A 5503. The data set is described as above. Format: cell-based. As for the experimental part:
as §1

Data set [11] has as its system S. maltophilia IID 1275. The data set is described as above. The data set is classed as cell-based. As for the experimental part: as §1
The test system of data set [12] is S. marcescens 10100. The description is as above. The data set is classed as cell-based. As for the experimental part: as §1
Data set [13] deals with S. pneumoniae J24. The data set is described as above. The data set is classed as cell-based. As for the experimental part: as §1
Data set [14] deals with S. pyogenes G-36. The description is as above. The data set is classed as cell-based. As for the experimental part:
as §1

For data set [15], the system named is Chinese hamster lung (CHL/IU) cells. Briefly: Effect of inducing chromosomal aberration. Format: cell-based. The settings on record: for Percentile induction of structural aberration (TA %): 24 hours. As for the experimental part:
From each sample solution, samples to be tested having a concentration of 1, 3, 10, 30, 50, and 100 μg/mL (as reduced to free form) were prepared. As a negative control, 0.1 mol/L NaOH was employed.
Chinese hamster lung (CHL/IU) cells in logarithmic growth phase were employed. The cells were treated in a culture solution containing each sample to be tested for 24 hours. Subsequently, a chromosome specimen was prepared from the thus-treated cells. The culture solution employed was an Eagle's MEM (product of NISSUI PHARMACEUTICAL CO., LTD.) medium containing 15% fetal bovine serum (15% FBS-MEM).
In each sample concentration, 100 cells during metaphase were observed, to thereby record types and numbers of the chromosomal aberration.

Where [16] appears, read: S. aureus 870307, quinolone-resistant.
Setting [17] is: S. pneumoniae J24, quinolone-resistant.

The melting point is the temperature, or range, at which the solid turns liquid. `CCC[C@H]1CN(c2c(F)cc3c(=O)c(C(=O)O)cn4c3c2OC[C@@H]4C)C[C@H]1N` (as salt: hydrochloride) displayed a melting point of 225 to 231 °C.
The same measure, in the same setting: the figure for `CCC[C@H]1CN(c2c(F)cc3c(=O)c(C(=O)O)cn([C@@H]4C[C@@H]4F)c3c2C)C[C@H]1N` (as salt: hydrochloride) [Compound No. 5, 7-[(3S,4S)-3-Amino-4-propylpyrrolidin-1-yl]-6-fluoro-1-[(1R,2S)-2-fluorocyclopropyl]-8-methyl-1,4-dihydro-4-oxoquinoline-3-carboxylic acid-hydrochloride] is 197 to 207 °C.
Broadly, the MIC is the lowest concentration that inhibits growth of the organism. `O=C(O)c1cn(C2CC2)c2cc(N3CCNCC3)c(F)cc2c1=O` [CPFX, reference compound]: the MIC entry in [1] (E. coli NIHJ) was “≦0.003 μg/mL”; in [2] (E. faevcalis ATCC 19433), 0.78 µg/mL (≈ 2.35 µM); in data set [3] (K. pneumoniae TYPE I), 0.025 µg/mL (≈ 0.0754 µM); in data set [4] (P. Vulgalis 08601), “≦0.003 μg/mL”; in data set [5] (P. aeruginosa 32104), 0.05 µg/mL (≈ 0.151 µM); in [6] (P. aeruginosa 32121) it was 0.025 µg/mL (≈ 0.0754 µM). For the same compound, the MIC is greater than 6.25 µg/mL in [7] (setting [16]); 0.1 µg/mL (≈ 0.302 µM) in data set [8] (S. aureus FDA 209P); 0.2 µg/mL (≈ 0.604 µM) in data set [9] (S. epidermidis 56500); 0.006 µg/mL (≈ 0.0181 µM) in data set [10]; 0.78 µg/mL (≈ 2.35 µM) in data set [11] (S. maltophilia IID 1275); 0.025 µg/mL (≈ 0.0754 µM) in data set [12] (S. marcescens 10100). Further, the MIC in data set [13] (setting [17]) stood at 0.39 µg/mL (≈ 1.18 µM); in data set [14] (S. pyogenes G-36), 1.56 µg/mL (≈ 4.71 µM).
As to `CC[C@H]1CN(c2c(F)cc3c(=O)c(C(=O)O)cn(C4CC4)c3c2C)C[C@H]1N` [Comparative Compound D, 7-[(3S,4S)-3-Amino-4-ethylpyrrolidine-1-yl]-1-cyclopropyl-6-fluoro-8-methyl-1,4-dihydro-4-oxoquinoline-3-carboxylic acid, reference compound], the “Percentile induction of structural aberration (TA %)” value in data set [15] (1 μg/mL, CHL/IU cells) is recorded as 4%; in data set [15] (3 μg/mL, CHL/IU cells) it was 0%; in data set [15] (10 μg/mL, CHL/IU cells), 3%; in data set [15] (30 μg/mL, CHL/IU cells), 63* %; in [15] (50 μg/mL, CHL/IU cells), 98* %; in data set [15] (100 μg/mL, CHL/IU cells), 100* %.
Regarding `CC[C@H]1CN(c2c(F)c(N)c3c(=O)c(C(=O)O)cn(C4CC4)c3c2C)C[C@H]1N` [Comparative Compound E, 5-amino-7-[(3S,4S)-3-amino-4-ethyl-1-pyrrolidinyl]-1-cyclopropyl-6-fluoro-1,4-dihydro-8-methyl-4-oxoquinoline-3-carboxylic acid, reference compound], the “Percentile induction of structural aberration (TA %)” value in data set [15] (1 μg/mL, CHL/IU cells) is 0%; in data set [15] (3 μg/mL, CHL/IU cells) it was 3%; in [15] (10 μg/mL, CHL/IU cells), 1%; in data set [15] (30 μg/mL, CHL/IU cells), 6%; in [15] (50 μg/mL, CHL/IU cells), “TOX*^1”; in data set [15] (100 μg/mL, CHL/IU cells), “TOX*^1”. In [15] (CHL/IU cells), the “Concentration at which C-mitosis and ski-pair-like chromosomes are observed considerably” value is no less than 50 µg/mL. Also, the “Significant increase in number of the cells exhibiting chromosomal aberration” value in data set [15] (at a concentration of up to 30 μg/mL) was “not observed”.
On to `CCC[C@H]1CN(c2c(F)cc3c(=O)c(C(=O)O)cn([C@@H]4C[C@@H]4F)c3c2OC)C[C@H]1N` [Compound No. 4, 7-[(3S,4S)-3-Amino-4-propylpyrrolidin-1-yl]-6-fluoro-1-[(1R,2S)-2-fluorocyclopropyl]-8-methoxy-1,4-dihydro-4-oxoquinoline-3-carboxylic acid], for which the melting point was in the range of 79 to 83 °C.
`CCC[C@H]1CN(c2c(F)cc3c(=O)c(C(=O)O)cn([C@@H]4C[C@@H]4F)c3c2C)C[C@H]1N` [Compound No. 5, 7-[(3S,4S)-3-Amino-4-propylpyrrolidin-1-yl]-6-fluoro-1-[(1R,2S)-2-fluorocyclopropyl]-8-methyl-1,4-dihydro-4-oxoquinoline-3-carboxylic acid-hydrochloride]: the MIC turned out to be 0.006 µg/mL in data set [1] (Escherichia coli); 0.1 µg/mL in data set [2]; 0.025 µg/mL in [3] (Klebsiella pneumoniae); 0.012 µg/mL in data set [4]; 0.2 µg/mL in data set [5] (Pseudomonas aeruginosa, 32104); 0.1 µg/mL in data set [6] (Pseudomonas aeruginosa, 32121). Moreover, the minimal inhibitory concentration (MIC) is 0.2 µg/mL in data set [7] (Staphylococcus aureus, 870307); 0.006 µg/mL in [8] (Staphylococcus aureus, FDA209P); 0.025 µg/mL in data set [9] (Staphylococcus epidermidis, 56500); 0.006 µg/mL in data set [10] (Shigella flexneri, 2A5503, read-out: MIC); 0.05 µg/mL in data set [11] (Stenotrophomonas maltophilia, IID1275); 0.05 µg/mL in data set [12] (Serratia marcescens, 10100). The minimum inhibitory concentration (MIC) in data set [13] (Streptococcus pneumoniae, J24) was found to be 0.025 µg/mL; in data set [14] (Streptococcus pyogenes, G36), 0.025 µg/mL.
Take `C=C[C@H]1CN(c2c(F)cc3c(=O)c(C(=O)O)cn4c3c2OC[C@@H]4C)C[C@H]1N` [Compound No. 7, (3S)-10-[(3S,4S)-3-Amino-4-vinyl-1-pyrrolidinyl]-9-fluoro-2,3-dihydro-3-methyl-7-oxo-7H-pyrido[1,2,3-de][1,4]benzoxazine-6-carboxylic acid]: the melting point is 238 to 240 °C.
Regarding `C[C@H]1COc2c(N3C[C@@H](N)[C@@H](C4CC4)C3)c(F)cc3c(=O)c(C(=O)O)cn1c23` [Compound No. 9, (3S)-10-[(3S,4S)-3-Amino-4-cyclopropylpyrrolidin-1-yl]-9-fluoro-2,3-dihydro-3-methyl-7-oxo-7H-pyrido[1,2,3-de][1,4]benzoxazine-6-carboxylic acid], the melting point fell in the range of 218 to 220 °C.
Same read-out and setting: the figure for `CC[C@H]1CN(c2c(F)cc3c(=O)c(C(=O)O)cn([C@@H]4C[C@@H]4F)c3c2OC)C[C@H]1NC` [Compound No. 12, 7-[(3S,4S)-3-Ethyl-4-methylaminopyrrolidin-1-yl]-6-fluoro-1-[(1R,2S)-2-fluorocyclopropyl]-8-methoxy-1,4-dihydro-4-oxoquinoline-3-carboxylic acid] is 143 to 145 °C.
On the same count and under the same terms, the figure for `CC[C@H]1CN(c2c(F)cc3c(=O)c(C(=O)O)cn4c3c2OC[C@@H]4C)C[C@H]1NC` [Compound No. 13, (3S)-10-[(3S,4S)-3-Ethyl-4-methylaminopyrrolidin-1-yl]-9-fluoro-2,3-dihydro-3-methyl-7-oxo-7H-pyrido[1,2,3-de][1,4]benzoxazine-6-carboxylic acid] is 211 to 213 °C; for `CC[C@H]1CN(c2ccc3c(=O)c(C(=O)O)cn([C@@H]4C[C@@H]4F)c3c2C)C[C@H]1N` [Compound No. 14, 7-[(3S,4S)-3-Amino-4-ethylpyrrolidine-1-yl]-1-[(1R,2S)-2-fluorocyclopropyl]-8-methyl-1,4-dihydro-4-oxoquinoline-3-carboxylic acid] it is 232 to 234 °C; for `CC[C@H]1CN(c2c(F)cc3c(=O)c(C(=O)O)cn([C@@H]4C[C@@H]4F)c3c2C)C[C@H]1NC` [Compound No. 15, 7-[(3S,4S)-3-Ethyl-4-methylaminopyrrolidin-1-yl]-6-fluoro-1-[(1R,2S)-2-fluorocyclopropyl]-8-methyl-1,4-dihydro-4-oxoquinoline-3-carboxylic acid] it is 223 to 225 °C.
Same read-out and setting: the figure for `CN[C@@H]1CN(c2c(F)cc3c(=O)c(C(=O)O)cn([C@@H]4C[C@@H]4F)c3c2C)C[C@@H]1C(C)C` [Compound No. 17, 6-Fluoro-1-[(1R,2S)-2-fluorocyclopropyl]-7-[(3S,4S)-3-isopropyl-4-methylaminopyrrolidin-1-yl]-8-methyl-1,4-dihydro-4-oxoquinoline-3-carboxylic acid] is 168 to 171 °C.
For `C[C@H]1COc2c(N3CCN(C)CC3)c(F)cc3c(=O)c(C(=O)O)cn1c23` [LVFX, reference compound], the minimum inhibitory concentration (MIC) amounted to 0.012 µg/mL (≈ 0.0332 µM) in [1] (E. coli NIHJ); 0.78 µg/mL (≈ 2.16 µM) in [2] (E. faevcalis ATCC 19433); 0.1 µg/mL (≈ 0.277 µM) in data set [3] (K. pneumoniae TYPE I); 0.012 µg/mL (≈ 0.0332 µM) in data set [4] (P. Vulgalis 08601); 0.2 µg/mL (≈ 0.553 µM) in [5] (P. aeruginosa 32104); 0.1 µg/mL (≈ 0.277 µM) in [6] (P. aeruginosa 32121). The minimal inhibitory concentration (MIC) in [7] (setting [16]) was greater than 6.25 µg/mL; in data set [8] (S. aureus FDA 209P), 0.2 µg/mL (≈ 0.553 µM); in data set [9] (S. epidermidis 56500) it was 0.39 µg/mL (≈ 1.08 µM); in data set [10], 0.025 µg/mL (≈ 0.0692 µM); in data set [11] (S. maltophilia IID 1275), 0.39 µg/mL (≈ 1.08 µM); in data set [12] (S. marcescens 10100), 0.1 µg/mL (≈ 0.277 µM). The MIC in data set [13] (setting [17]) and in [14] (S. pyogenes G-36) was 0.78 µg/mL (≈ 2.16 µM) in each case.
